The values that follow come from patent publication US9604960B2, “Aryl, heteroaryl, and heterocycle substituted tetrahydroisoquinolines and use thereof” (Albany Molecular Research, Inc., priority 2009, dated 2017).

Each structure is given as a SMILES string.

One experiment concerns the target hDAT (Homo sapiens (Human), UniProt Q01959). Briefly: DAT radioligand binding assay ([125I]RTI-55). The conditions noted are these: (+)-enantiomers; membranes of HEK-293 cells expressing hDAT. On the procedure:
Recombinant HEK-293 cells expressing either the hSERT, hDAT, or hNET proteins were harvested from T-175 flasks as follows. The medium was removed from the flasks and the cells rinsed with HBSS without Ca and without Mg. The cells were then incubated for 5-10 minutes in 10 mM Tris-Cl, pH 7.5, 5 mM EDTA before the cells were lifted with a combination of pipetting and scraping, as needed. The cell suspension was collected into centrifuge bottles and homogenized for 30 seconds with a Polytron homogenizer. The suspension was centrifuged for 30 minutes at 32,000×g, 4° C. The supernatant was decanted and the pellet resuspended and homogenized in 50 mM Tris-Cl, pH 7.5, 1 mM EDTA for 10 seconds. […]
Compounds were dissolved in 100% DMSO at a concentration 100 times the desired highest assay concentration, serially diluted 1:3 in 100% DMSO, and 0.4 μl/well of each solution was dispensed to a Nunc polypropylene, round bottom, 384-well plate. […] The plates were air-dried overnight, 12 μl/well of MicroScint scintillation fluid added, and the plates counted in a Trilux.
The raw data was normalized to percent inhibition using control wells defining 0% (DMSO only) and 100% (selective inhibitor) inhibition which were run on each plate. […] The radioligand concentration chosen for each assay corresponds to the Kd concentration determined through saturation binding analysis for each assay.

A further experiment has as its target hSERT (Homo sapiens (Human), UniProt P31645). Briefly: SERT radioligand binding assay ([125I]RTI-55). The conditions noted are these: (+)-enantiomers; membranes of HEK-293 cells expressing hSERT. As to the method:
The medium was removed from the flasks and the cells rinsed with HBSS without Ca and without Mg. The cells were then incubated for 5-10 minutes in 10 mM Tris-Cl, pH 7.5, 5 mM EDTA before the cells were lifted with a combination of pipetting and scraping, as needed. The cell suspension was collected into centrifuge bottles and homogenized for 30 seconds with a Polytron homogenizer. The suspension was centrifuged for 30 minutes at 32,000×g, 4° C. The supernatant was decanted and the pellet resuspended and homogenized in 50 mM Tris-Cl, pH 7.5, 1 mM EDTA for 10 seconds. The suspension was then centrifuged again for 30 minutes at 32,000×g, 4° C. The supernatant was decanted and the pellet resuspended in 50 mM Tris-Cl, pH 7.5, 1 mM EDTA and briefly homogenized. A Bradford assay (Bio-rad) was performed and the membrane preparation diluted to 2 mg/ml with 50 mM Tris-Cl, pH 7.5, 1 mM EDTA. Aliquots were prepared, and then frozen and stored at −80° C.
Compounds were dissolved in 100% DMSO at a concentration 100 times the desired highest assay concentration, serially diluted 1:3 in 100% DMSO, and 0.4 μl/well of each solution was dispensed to a Nunc polypropylene, round bottom, 384-well plate. […] The plates were air-dried overnight, 12 μl/well of MicroScint scintillation fluid added, and the plates counted in a Trilux. […]

The test system of another experiment is Male Swiss Webster mice. Briefly: Mouse tail suspension assay. The format is in vivo. The conditions noted are these: acute administration, immobility. On the procedure: Male Swiss Webster mice were housed 3-4 per cage in rooms maintained at a constant temperature (21-23° C.) and humidity (50±10%) on a 12-hour light/dark cycle. Animals had ad libitum access to water and food throughout studies. On the day of testing, they were brought into the testing room and allowed to acclimate for one hour. To begin testing, the tail was attached to a piece of tape which is then attached to a hook on the ceiling of a sound-attenuated chamber. Immobility was automatically recorded using the Med Associates software. Compounds were administered acutely at a fixed pretreatment interval before session.

As usually defined, the IC50 is the concentration at which inhibition is half-maximal.

Sequence of hSERT (P31645 whole entry): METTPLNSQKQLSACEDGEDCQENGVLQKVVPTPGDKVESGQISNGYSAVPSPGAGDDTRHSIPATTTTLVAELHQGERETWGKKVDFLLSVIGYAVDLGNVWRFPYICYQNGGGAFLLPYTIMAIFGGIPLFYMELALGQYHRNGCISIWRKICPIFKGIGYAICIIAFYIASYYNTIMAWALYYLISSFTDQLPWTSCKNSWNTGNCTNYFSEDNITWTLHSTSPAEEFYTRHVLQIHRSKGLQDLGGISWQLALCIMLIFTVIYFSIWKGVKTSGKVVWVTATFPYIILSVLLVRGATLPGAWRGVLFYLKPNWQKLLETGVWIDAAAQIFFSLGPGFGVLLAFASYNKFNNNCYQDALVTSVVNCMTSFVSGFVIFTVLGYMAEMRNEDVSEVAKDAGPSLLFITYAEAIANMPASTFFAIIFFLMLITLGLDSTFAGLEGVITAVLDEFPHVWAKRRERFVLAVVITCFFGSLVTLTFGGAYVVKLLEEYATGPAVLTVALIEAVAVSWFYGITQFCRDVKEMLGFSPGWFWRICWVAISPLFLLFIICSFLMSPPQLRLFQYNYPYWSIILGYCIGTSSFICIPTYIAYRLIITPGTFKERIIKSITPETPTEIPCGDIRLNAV
Sequence of hDAT (Q01959 whole entry): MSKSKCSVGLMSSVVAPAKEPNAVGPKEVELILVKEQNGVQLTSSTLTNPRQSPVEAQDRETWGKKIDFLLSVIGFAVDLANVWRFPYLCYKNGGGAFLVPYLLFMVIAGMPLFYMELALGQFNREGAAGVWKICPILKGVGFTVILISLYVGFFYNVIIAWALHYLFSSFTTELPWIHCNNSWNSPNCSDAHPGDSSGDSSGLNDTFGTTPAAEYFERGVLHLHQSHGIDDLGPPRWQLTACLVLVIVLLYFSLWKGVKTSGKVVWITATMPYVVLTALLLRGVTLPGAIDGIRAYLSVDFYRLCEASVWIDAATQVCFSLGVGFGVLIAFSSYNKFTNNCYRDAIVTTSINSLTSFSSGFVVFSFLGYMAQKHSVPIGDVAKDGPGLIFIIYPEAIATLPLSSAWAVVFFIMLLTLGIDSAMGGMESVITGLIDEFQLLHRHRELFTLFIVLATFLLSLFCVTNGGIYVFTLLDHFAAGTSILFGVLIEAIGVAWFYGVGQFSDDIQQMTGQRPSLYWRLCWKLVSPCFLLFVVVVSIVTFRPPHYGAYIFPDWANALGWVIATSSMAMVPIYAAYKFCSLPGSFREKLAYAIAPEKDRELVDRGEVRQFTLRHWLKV

Regarding `CC1(C)NCC(c2ccc(Cl)c(Cl)c2)c2ccc(-c3ccc(C(F)(F)F)nn3)cc21` (single isomer, unassigned) [Example 10, 4-(3,4-dichlorophenyl)-7-(6-(trifluoromethyl)pyridazin-3-yl)-1,1-dimethyl-1,2,3,4-tetrahydroisoquinoline], the IC50 at hDAT was determined as 0.028 µM; on hSERT, 0.026 µM.

In the case of `Clc1ccc(C2CNCc3cc(-c4ccc5ncnn5c4)ccc32)cc1Cl` (stereo not drawn) [Example 36, 7-([1,2,4]triazolo[1,5-a]pyridin-6-yl)-4-(3,4-dichlorophenyl)-1,2,3,4-tetrahydroisoquinoline], the “minimum effective dose in the mouse tail suspension study” value in the experiment on Male Swiss Webster mice is reported as 10 mg/kg.
